Assay results taken from patent publication US20060211705A1, “'N-(2-chloro-6-methylphenyl)-2-[[6-[4-(2-hydroxyethyl)-1-piperazinyl]-2-methyl-4-pyrimidinyl]amino]-5-thiazolecarboxamides metabolites” (priority 2005, published 2006).

Key:
[1] = Metabolite profile of [14C] compound (I) in human liver microsome incubations; assay type: in vitro ADME; conditions: (Ia) 20 μM, 15 min, 37° C., 2 mg/mL microsomal protein, 2.0 mM NADPH
Protocol: The compound of formula (I) was used as the [^14C] compound (Ia) (30.4 μCi/mg, radiochemical purity 99.2%), as the monohydrate of the free base. The C-14 label was on the carbon in the 2-position of the thiazole ring.
Freshly isolated rat hepatocyte preparations were prepared from one male Sprague-Dawley rat. Rat Hepatocytes were prepared according to a standard procedure (Seglen, PO. Preparation of isolated rat liver cells. Methods Cell Biol., 1976, 13: 29-83). Cryopreserved cynomolgus monkey hepatocytes (male, pooled, n=6) and human hepatocytes (3 individual preparation) were purchased from In Vitro Technologies (Baltimore, Md.). Microsomes from male SD Rats (pooled, n=200, 20 mg/mL) and male cynomolgus monkeys (pooled, n=8, 20 mg/mL) were obtained from Xenotech LLC, Kansas City, Kans. Human liver microsomes (male, pooled, n=38) were from BD-Gentest, Woburn, Mass.
A 6 mM stock solution of the compound of formula (Ia) (the [^14C] of the compound of formula (I) was prepared at by dissolving 3.7 mg of the compound of formula (Ia) into 1:1 acetonitrile/DMSO. The 2 mM stock solution of the compound of formula (Ia) was obtained by diluting an aliquot of the 6 mM stock solution 3-fold with acetonitrile.
Hepatocyte incubations were conducted at 37° C. for 3 h in a NAPCO CO2 6000 incubator (VWR Scientific Products) under a 5% CO2 atmosphere using an orbital shaker at 90 rpm. For each incubation, the final concentration of compound (Ia) was 20 μM and the hepatocyte concentrations were ˜2 million cells/mL. A control incubation, in the absence of hepatocytes, was also performed for 3 h. The incubations were stopped by adding one volume of ice-cold acetonitrile. Each 0.5 mL incubation contained 0.1 M potassium phosphate buffer (pH 7.4), 2.5 mM MgCl2, 2 mg/mL microsomal protein, and 2.0 mM NADPH. The final substrate concentration was 20 μM. The mixtures were incubated in a shaking water bath at 37° C. for 15 min. Control incubations in the absence of microsomes or NADPH were performed for each species. The reactions were stopped with the addition of 1 mL of ice-cold acetonitrile.
HPLC was performed on a Waters Alliance™ system equipped with Waters 2695 pumps and a photodiode array detector (Waters 2996). A Phenomenex Synergy Polar-RP® column (4.6×250 mm, 5 micron) was used for metabolite separation. All HPLC analyses were performed at 1 mL/min flow rate at room temperature. Two HPLC mobile phase and gradient systems were used because all metabolites could not be completely separated on either of the individual HPLC systems. The first system consisted of (A) water with 0.1% formic acid and (B) acetonitrile with 0.1% formic acid as mobile phase. The linear gradient was as follows: 0 min, 20% B; 1 min, 20% B; 41 min, 35% B; 42 min, 90% B; 44 min, 90% B. The column was re-equilibrated at 20% B for 6 min before the next injection. The second HPLC system was used to separate certain co-eluting metabolites that could not be separated by the first system. The mobile phase consisted of (A) water with 0.1% triflouroacetic acid (TFA) and (B) acetonitrile with 0.1% TFA. The gradient was as follows: 0 min, 20% B; 1 min, 20% B; 51 min, 35% B; 52 min, 90% B; 54 min 90% B. The column was equilibrated at 20% B for 6 min prior to the next injection.
On-line radioactivity detection (RAD) was conducted using an INUS β-RAM detector (Model 3, INUS, Tampa, Fla.). The β-RAM was operated with a 500 μL liquid flow cell in the homogeneous liquid scintillation counting mode. A flow rate of 2 mL/min of scintillation cocktail was mixed with the HPLC effluent. The effluent from HPLC was split to the β-RAM detector (90%) and the mass spectrometer (10%) by adjusting the length and diameter of post column tubings. The β-RAM detector provided integrated output detailing the percentage and amount of radioactivity under each radioactive peak.
Hepatocyte and liver microsomal incubations were quenched with acetonitrile and were vortex-mixed for 3 min. […]

[2] = In vivo metabolism of compound of formula I in bile duct cannulated rats by LC/UV/MSn; set-up: species or system rat; conditions: BDC rats; for Relative abundance in gastrointestinal samples from rats dosed orally: 10 mg/kg oral, GIT at 9 hour; for Relative abundance in rat urine / Relative abundance in rat bile: 10 mg/kg; for Relative abundance in rat urine: urine over 9 hour; for Relative abundance in rat bile: bile over 9 hour
Protocol: The in vivo metabolism of compound of formula I was investigated in bile duct cannulated rats (n=2), following a single dose of 10 mg/kg either intravenously (IV) as a 10 minute infusion or orally by gavage. The vehicle used was 50 mM sodium acetate buffer, pH 4.6. The rats were fasted overnight and for the duration of the study. Urine and bile were collected over a 9 hour period. The gastrointestinal tract (GIT) and feces were collected at the end of the 9 hour study period. GIT and feces were homogenized with 3 volumes of water and 3 volumes of acetonitrile per volume of GIT/feces. Blood samples were collected at 15, 30 minutes, 1, 2, 4, 6 and 9 hours after intravenous and oral dosing in tubes containing EDTA and plasma was prepared by centrifugation. Samples were stored at −20° C. until analysis.
Plasma samples were pooled across collection intervals and treated with two volumes of acetonitrile. After centrifugation, the supernatent was removed and evaporated to dryness. The residues were then redissolved in 300 μl of methanol:water (1:1). Bile and urine samples from the BDC rat study were pooled across collection intervals. Bile samples were purified by sep-pak purification on C8 cartridges. The samples were evaporated and the residue was redissolved in 300 μl of methanol:water (1:1). Urine samples were diluted one to one with methanol and analyzed without further purification. All samples were analyzed by LC/UV/MS^n.
The HPLC system consisted of Waters alliance 2690 separation module. The column used was a Phenomenex Curosil PFP, 4.6 mm×150 mm, 5 μ particles with a flow rate of 1.0 mL/min. The mobile phase consisted of 95/5 v/v Water/Methanol containing 0.1% formic acid (Solvent A) and Methanol (Solvent B). The initial mobile phase composition was 20% Solvent B. After sample injection, this composition was held for 0.5 minute at initial conditions then ramped to 80% solvent B up to 24.5 min, and ramped to 100% solvent B up to 28 minutes. The mobile phase was then returned to initial conditions and the column re-equilibrated for 5 minutes. Total analysis time was 33 minutes.
The HPLC was interfaced to a Finnigan's Photo Diode Array Detector (PDA: UV6000) in tandem with Finnigan Deca XP ion trap mass spectrometer. Deca XP mass spectrometer was equipped with an Electrospray ionization source (ESI) interface. The source was operated in a positive ion mode with capillary temperature of 350° C. and source voltage 5.0 kV. The UV profile was extracted at […] of 254 nm. UHP (Ultra High Purity) nitrogen was used as sheath and auxiliary gas. The normalized collision energy was set at 50% and the isolation width was 3.0 amu. Multiple MS experiments were performed in a single chromatographic run with the following data dependent settings: […]

| Structure (SMILES) | % of Radioactivity in Microsomes, Human [1] | Relative abundance in rat plasma ([2]; 10 mg/kg IV or oral, pooled plasma, LC/UV/MSn) | Relative abundance in gastrointestinal samples from rats dosed orally [2] | Relative abundance in rat urine [2] | Relative abundance in rat bile [2] |
| --- | --- | --- | --- | --- | --- |
| Cc1nc(Nc2ncc(C(=O)Nc3c(C)cccc3Cl)s2)cc(N2CCN(CCO)CC2)n1 [Parent (I), N-(2-Chloro-6-methylphenyl)-2-[[6-[4-(2-hydroxyethyl)-1-piperazinyl]-2-methyl-4-pyrimidinyl]amino]-5-thiazolecarboxamide] | 35.5% | major peak | major drug related peak | trace amounts |  |
| Cc1nc(Nc2ncc(C(=O)Nc3c(C)cccc3Cl)s2)cc(N2CCN(CC(=O)O)CC2)n1 [M6 (IV), 2-(4-(6-(5-((2-Chloro-6-methylphenyl)carbamoyl)thiazol-2-ylamino)-2-methylpyrimidin-4-yl)piperazin-1-yl)acetic acid] | 1.6% |  | trace amounts |  | major metabolites |

The remaining lines, values ahead:

| % of Radioactivity in Microsomes, Human [1] | Relative abundance in rat plasma ([2]; 10 mg/kg IV or oral, pooled plasma, LC/UV/MSn) | Relative abundance in gastrointestinal samples from rats dosed orally [2] | Relative abundance in rat urine [2] | Relative abundance in rat bile [2] | Structure (SMILES) |
| --- | --- | --- | --- | --- | --- |
| 4.0% |  | trace amounts |  |  | Cc1nc(Nc2ncc(C(=O)Nc3c(C)cccc3Cl)s2)cc(N2CCNCC2)n1 [M4 (II)] |
| 4.0% |  |  | major metabolite | major metabolites | Cc1nc(Nc2ncc(C(=O)Nc3c(C)cccc3Cl)s2)cc(N2CC[N+]([O-])(CCO)CC2)n1 [M5 (III)] |
| 39.2% |  |  |  |  | Cc1nc(Nc2ncc(C(=O)Nc3c(C)cc(O)cc3Cl)s2)cc(N2CCN(CCO)CC2)n1 [M20 (V)] |
| 39.2% |  |  |  |  | Cc1nc(Nc2ncc(C(=O)Nc3c(Cl)cccc3CO)s2)cc(N2CCN(CCO)CC2)n1 [M24 (VI), N-(2-chloro-6-(hydroxymethyl)phenyl)-2-(6-(4-(2-hydroxyethyl)piperazin-1-yl)-2-methylpyrimidin-4-ylamino)thiazole-5-carboxamide] |
